Test: Unidirectional (A→B) permeability across Caco-2 cell monolayer
Conditions: human, Caco-2, pH 7.4, Caco-2 Permeability (Papp) (A→B); for Papp A→B at 120 min, 1 μg/mL: compound alone, 1 μg/mL in HBSS buffer, pH 7.4, 120 min
Experimental: The Caco-2 permeability of two Withania somnifera extracts prepared by the claimed method of the present application (EXT001 and EXT002) and one Withania somnifera extract prepared using an alternative method (ALT001) were measured for comparison. Caco-2 cells (ATCC HTB-37) were grown on 24 well Transwell plates for 21 days. as per internal protocol number MET-TDDC-011. On the day of experiment the transepithelial electrical resistance (TEER) was measured across the monolayer and wells with TEER greater than 200 ohm*cm^2 were used for the permeability assessment. Incubation buffer consisted of Hanks balanced salt solution (HBSS) without CaCl2 and MgCl2, adjusted to pH 7.4, for both the donor, and the receiver. […] Lucifer yellow was used as zero permeability reference to check membrane integrity.
The compound solutions were prepared in HBSS buffer (pH 7.4) at a concentration of 1 μg/mL for permeability assessment. 5 mg each of Withania somnifera extracts EXT002 and EXT001 were added to 5 mL of HBSS buffer and vortexed for 2 hours followed by filtration through 0.22 μm syringe filter. These solutions were used for permeability determination. […] The methanolic extract was filtered through 0.22 μm filter. This extract was concentrated to 1 mL by passing nitrogen gas at 40° C. for 1 hr. Then 20 μL of this extract was spiked in 2 mL of HBSS buffer and filtered through 0.22 μm filter. This solution was used for the permeability study.
The permeability assay was performed in triplicate for each compound or product. Prior to the permeability assay, the transwells were washed with in pre-warmed HBSS buffer. The medium in the insert was aspirated and then the transwells were transferred to a 24-well plate with blank HBSS buffer (600 μL) in each well, and compound solution (102.5 μL, of which 2.5 μL was sampled immediately as the zero-minute donor) was added to each insert. Receiver samples (25 μL) were collected at 60, and 120 minutes, and replaced with an equal volume of fresh pre-warmed receiver buffer (at 60 minutes). The donor side was sampled (2.5 μL) at 0 and 120 minutes. The assay was conducted at 37° C. in a humidified CO2 incubator.
For analysis, any necessary dilutions of samples were performed with HBSS, pH 7.4. 25 μL of sample was mixed with 100 μL of acetonitrile with 25 ng/mL of mitragynine internal standard (IS), and then mixed and filtered through 0.4 μm filter plate to by centrifugation for 5 minutes at 2,000 rpm to a polypropylene 96-well plate for analysis. The samples were assayed by LC-MS/MS method.
The apparent permeability coefficient (Papp) and recovery were calculated as follows: […]
Where, VA is the volume of the acceptor compartment; A is the diffusional area of the membrane (0.33 cm^2); T is the length of study; [Drug]ini,donor is the donor compound amount at 0 minute; [Drug]acceptor is the acceptor compound amount at 120 minute. The compounds with permeability above 5×10^−6 cm/s will be considered high permeability compounds while those with permeability below 5×10^−6 cm/s will be considered low permeability compounds.

| Papp A→B at 120 min, 5 μg/mL [×10⁻⁶ cm/s] | Compound | Papp A→B at 120 min, 1 μg/mL [×10⁻⁶ cm/s] |
| --- | --- | --- |
| – | CC1=C(CO)C(=O)O[C@@H]([C@@H](C)[C@H]2CC[C@H]3[C@@H]4CC=C5C[C@@H](O[C@@H]6O[C@H](CO[C@@H]7O[C@H](CO)[C@@H](O)[C@H](O)[C@H]7O)[C@@H](O)[C@H](O)[C@H]6O)C[C@H](O)[C@]5(C)[C@H]4CC[C@]23C)C1 [Withanoside IV, withanoside IV] | 5.42 ± 0.69 |
| – | CC1=C(C)C(=O)O[C@@H]([C@@H](C)[C@H]2CC[C@H]3[C@@H]4CC=C5C[C@@H](O[C@@H]6O[C@H](CO[C@@H]7O[C@H](CO)[C@@H](O)[C@H](O)[C@H]7O)[C@@H](O)[C@H](O)[C@H]6O)C[C@H](O)[C@]5(C)[C@H]4CC[C@]23C)C1 [Withanolside V, withanoside V] | 4.03 ± 0.87 |
| – | CC1=C(CO)C(=O)O[C@@H]([C@@H](C)[C@H]2CC[C@H]3[C@@H]4C[C@H]5O[C@]56[C@@H](O)C=CC(=O)[C@]6(C)[C@H]4CC[C@]23C)C1 [Withaferin A, withaferin A] | 4.55 ± 0.81 |
| 4.2 ± 1.79 | NS(=O)(=O)c1cc2c(cc1Cl)N=CNS2(=O)=O [Chlorothiazide, reference compound] | – |
| – | CC1=C(C)C(=O)O[C@@H]([C@](C)(O)[C@H]2CC[C@H]3[C@@H]4[C@@H]5O[C@@H]5[C@@]5(O)CC=CC(=O)[C@]5(C)[C@H]4CC[C@]23C)C1 [Withanolide A, withanolide A] | 3.23 ± 0.5 |

Reference: patent US12201641B2, “Compositions comprising Withania Somnifera extract for mammalian consumption” (SpecNova LLC, priority 2021, dated 2025)
